Reference: patent publication US11780839B2, “Compounds for treating Huntington's disease” (PTC THERAPEUTICS, INC., priority 2018, dated 2023)
pIC50: −log10 of the molar value.

The compounds below were run on Endogenous Huntingtin Protein (assay: Endogenous Huntingtin Protein Assay (ELISA-based Meso Scale Discovery electrochemiluminescence)). Conditions: MSD electrochemiluminescence, Table 1.
Format: cell-based
Method in brief: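 Huntingtin was captured overnight at 4 °C on plates coated with 1 μg/mL MW1 (polyQ-expanded) or MAB2166 antibody and BSA-blocked. Detection used a rabbit monoclonal and then a SULFO-TAG goat anti-rabbit antibody (0.25 μg/mL, 1 h each, room temperature). Signal was read by electrochemiluminescence.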

pIC50 | SMILES
≥ 7.00 | CC(C)(C)NC1CN(c2ncc(-c3ccc(-c4cn[nH]c4)cc3O)nn2)CC1F (centres unmarked) [Cpd 278, 2-{3-[3-(tert-butylamino)-4-fluoropyrrolidin-1-yl]-1,2,4-triazin-6-yl}-5-(1H-pyrazol-4-yl)phenol]
≥ 7.00 | CC1(C)CC(Nc2ncc(-c3ccc(-c4ncccn4)cc3O)nn2)CC(C)(C)N1 [Cpd 279, 5-(pyrimidin-2-yl)-2-{3-[(2,2,6,6-tetramethylpiperidin-4-yl)amino]-1,2,4-triazin-6-yl}phenol]
< 6.30 | CC1(C)CN(c2ncc(-c3ccc(-c4cn[nH]c4)cc3O)nn2)CC(C)(C)N1 [Cpd 282, 5-(1H-pyrazol-4-yl)-2-[3-(3,3,5,5-tetramethylpiperazin-1-yl)-1,2,4-triazin-6-yl]phenol]
5.52 to 6.00 | CC(C)NC1CCN(c2ncc(-c3ccc(-c4cn5ccnc5cn4)cc3O)nn2)C1 (centres unmarked) [Cpd 283, 5-(imidazo[1,2-a]pyrazin-6-yl)-2-(3-{3-[(propan-2-yl)amino]pyrrolidin-1-yl}-1,2,4-triazin-6-yl)phenol]
6.30 to 7.00 | CO[C@H]1[C@@H](Nc2ncc(-c3ccc(-c4cn[nH]c4)cc3O)nn2)CC(C)(C)NC1(C)C [Cpd 286, 2-(3-{[(3S,4S)-3-methoxy-2,2,6,6-tetramethylpiperidin-4-yl]amino}-1,2,4-triazin-6-yl)-5-(1H-pyrazol-4-yl)phenol]
≥ 7.00 | Cn1ncc(-c2ccc(-c3cnc(N[C@H]4CC(C)(C)NC(C)(C)[C@H]4F)nn3)c(O)c2)n1 [Cpd 287, 2-(3-{[(3S,4S)-3-fluoro-2,2,6,6-tetramethylpiperidin-4-yl]amino}-1,2,4-triazin-6-yl)-5-(2-methyl-2H-1,2,3-triazol-4-yl)phenol]
≥ 7.00 | CC1(C)C[C@H](Nc2ncc(-c3ccc(-c4ncco4)cc3O)nn2)[C@H](F)C(C)(C)N1 [Cpd 288, 2-(3-{[(3S,4S)-3-fluoro-2,2,6,6-tetramethylpiperidin-4-yl]amino}-1,2,4-triazin-6-yl)-5-(1,3-oxazol-2-yl)phenol]
≥ 7.00 | Cc1ncc(-c2ccc(-c3cnc(N4CCC(NC(C)C)C4)nn3)c(O)c2)o1 (stereo not drawn) [Cpd 289, 5-(2-methyl-1,3-oxazol-5-yl)-2-(3-{3-[(propan-2-yl)amino]pyrrolidin-l-yl}-1,2,4-triazin-6-yl)phenol]
≥ 7.00 | COc1cc(-c2ccc(-c3cnc(N[C@H]4CC(C)(C)NC(C)(C)[C@H]4F)nn3)c(O)c2)ncn1 [Cpd 290, 2-(3-{[(3S,4S)-3-fluoro-2,2,6,6-tetramethylpiperidin-4-yl]amino}-1,2,4-triazin-6-yl)-5-(6-methoxypyrimidin-4-yl)phenol]
≥ 7.00 | Cn1nnc(-c2ccc(-c3cnc(N[C@H]4CC(C)(C)NC(C)(C)[C@H]4F)nn3)c(O)c2)n1 [Cpd 291, 2-(3-{[(3S,4S)-3-fluoro-2,2,6,6-tetramethylpiperidin-4-yl]amino}-1,2,4-triazin-6-yl)-5-(2-methyl-2H-tetrazol-5-yl)phenol]
≥ 7.00 | CC1(C)C[C@H](Nc2ncc(-c3ccc(-c4ncns4)cc3O)nn2)[C@H](F)C(C)(C)N1 [Cpd 292, 2-(3-{[(3S,4S)-3-fluoro-2,2,6,6-tetramethylpiperidin-4-yl]amino}-1,2,4-triazin-6-yl)-5-(1,2,4-thiadiazol-5-yl)phenol]
≥ 7.00 | CC(C)NC1CCN(c2ncc(-c3ccc(-c4ccc5nccn5n4)cc3O)nn2)C1 (centres unmarked) [Cpd 294]
≥ 7.00 | CNC1CCN(c2ncc(-c3ccc(-c4cnn(C)n4)cc3O)nn2)C1 (centres unmarked) [Cpd 295, 2-{3-[3-(methylamino)pyrrolidin-1-yl]-1,2,4-triazin-6-yl}-5-(2-methyl-2H-1,2,3-triazol-4-yl)phenol]
5.52 to 6.00 | CNC1CCN(c2ncc(-c3ccc(-c4ccn(C)n4)cc3O)nn2)C1 (centres unmarked) [Cpd 296, 2-{3-[3-(methylamino)pyrrolidin-1-yl]-1,2,4-triazin-6-yl}-5-(1-methyl-1H-pyrazol-3-yl)phenol]
≥ 7.00 | CC(C)CNC1CCN(c2ncc(-c3ccc(-c4cn[nH]c4)cc3O)nn2)C1 (centres unmarked) [Cpd 297]
5.52 to 6.00 | CC1(C)C[C@H](Nc2ncc(-c3ccc(-c4cn[nH]c4)cc3O)nn2)[C@H](O)C(C)(C)N1 [Cpd 298, (3S,4S)-4-({6-[2-hydroxy-4-(1H-pyrazol-4-yl)phenyl]-1,2,4-triazin-3-yl}amino)-2,2,6,6-tetramethylpiperidin-3-ol]
≥ 7.00 | Cc1ncc(-c2ccc(-c3cnc(N4CC5(CCN(C)CC5)C4)nn3)c(O)c2)o1 [Cpd 299, 2-[3-(7-methyl-2,7-diazaspiro[3.5]nonan-2-yl)-1,2,4-triazin-6-yl]-5-(2-methyl-1,3-oxazol-5-yl)phenol]

SMILES | pIC50
CN(c1ncc(-c2ccc(-c3cc(F)c4[nH]cnc4c3)cc2O)nn1)C1CC(C)(C)NC(C)(C)C1 [Cpd 280, 5-(7-fluoro-1H-benzimidazol-5-yl)-2-{3-[methyl(2,2,6,6-tetramethylpiperidin-4-yl)amino]-1,2,4-triazin-6-yl}phenol] | ≥ 7.00
CN(c1ncc(-c2ccc(-c3ncc4c(cnn4C)n3)cc2O)nn1)C1CC(C)(C)NC(C)(C)C1 [Cpd 281, 5-(1-methyl-1H-pyrazolo[4,3-d]pyrimidin-5-yl)-2-{3-[methyl(2,2,6,6-tetramethylpiperidin-4-yl)amino]-1,2,4-triazin-6-yl}phenol] | ≥ 7.00
Cn1ncc2cc(-c3ccc(-c4cnc(N[C@H]5CC(C)(C)NC(C)(C)[C@H]5F)nn4)c(O)c3)cnc21 [Cpd 284] | ≥ 7.00
CN(c1ncc(-c2ccc(-c3ccc4c(c3)ncn4C)cc2O)nn1)C1CC(C)(C)NC(C)(C)C1 [Cpd 285, 5-(1-methyl-1H-benzimidazol-5-yl)-2-{3-[methyl(2,2,6,6-tetramethylpiperidin-4-yl)amino]-1,2,4-triazin-6-yl}phenol] | ≥ 7.00
CO[C@H]1[C@@H](N(C)c2ncc(-c3ccc(-c4cn[nH]c4)cc3O)nn2)CC(C)(C)NC1(C)C [Cpd 293, 2-(3-{[(3S,4S)-3-methoxy-2,2,6,6-tetramethylpiperidin-4-yl](methyl)amino}-1,2,4-triazin-6-yl)-5-(1H-pyrazol-4-yl)phenol] | 6.30 to 7.00
CN(c1ncc(-c2ccc(-c3cc(F)c4c(c3)ncn4C)cc2O)nn1)C1CC(C)(C)NC(C)(C)C1 [Cpd 300, 5-(7-fluoro-1-methyl-1H-benzimidazol-5-yl)-2-{3-[methyl(2,2,6,6-tetramethylpiperidin-4-yl)amino]-1,2,4-triazin-6-yl}phenol] | 5.52 to 6.00
CN(c1ncc(-c2ccc(-c3cc4nc[nH]c4c(F)c3F)cc2O)nn1)C1CC(C)(C)NC(C)(C)C1 [Cpd 301, 5-(6,7-difluoro-1H-benzimidazol-5-yl)-2-{3-[methyl(2,2,6,6-tetramethylpiperidin-4-yl)amino]-1,2,4-triazin-6-yl}phenol] | ≥ 7.00
CN(c1ncc(-c2ccc(-c3cc4ncn(C)c4c(F)c3F)cc2O)nn1)C1CC(C)(C)NC(C)(C)C1 [Cpd 302, 5-(6,7-difluoro-1-methyl-1H-benzimidazol-5-yl)-2-{3-[methyl(2,2,6,6-tetramethylpiperidin-4-yl)amino]-1,2,4-triazin-6-yl}phenol] | < 6.30
Cc1cc(-c2ccc(-c3cnc(N(C)C4CC(C)(C)NC(C)(C)C4)nn3)c(O)c2)nn2ccnc12 [Cpd 303, 5-(8-methylimidazo[1,2-b]pyridazin-6-yl)-2-{3-[methyl(2,2,6,6-tetramethylpiperidin-4-yl)amino]-1,2,4-triazin-6-yl}phenol] | ≥ 7.00
